# Measured values as given in patent US20100003754A1, “METHODS OF DIFFERENTIATING STEM CELLS” (Ossacur AG, priority 2006, published 2010).
# Assays:
# [1] = test system: human mesenchymal stem cells (BMMSC); test: Cell proliferation, CellTiter 96 (MTT); type: cell-based; conditions: TGF-β1 10 ng/ml; stayed at a lower proliferation rate than the control groups
# Procedure: (§1) The cells were trypsinized and then counted using trypan blue. 60×10^3 or 15×10^3 mesenchymal stem cells were seeded in a 25 cm^2 cell culture bottle or in a 12-well plate. Each vessel was charged with an appropriate amount of standard medium (control group) or a medium which contained the joint or meniscus extract (of bovine origin) in a dilute solution of 1:25 or 1:50. Recombinant TGF-β1 protein (R&D Systems) with a concentration of 10 ng/ml was used for chondrocytic differentiation of the BMMSC as positive control. Cell supernatants were collected and stored at −80° C.
# Investigations on the cell proliferation were carried out using “CellTiter 96 Non-Radio-active” (Promega). This is a method based on 3-(4,5-dimethylthiazol-2-yl)-2,5-diphenyltetrazolium bromide (MTT) which determines the property of metabolically active cells of converting a tetrazolium salt. For example, the conversion of pale yellow MTT by cellular dehydrogenases into the dark blue, water-insoluble formazan is proportional to the activity of the dehydrogenases and thus to the survival rate of the cells. The absorbance is measured at a wavelength of 595 nm. The cells were counted and seeded in a density of […] in a 96-well round-bottom plate. The cell proliferation was determined on day 1, 3, 7 and 14. […] The absorbance was measured at the wavelength of 595 nm with a reference wavelength of 655 nm.
# BMMSC [2] = test: Quantification of chondroitin sulfate (Alcian blue); type: cell-based, human; conditions: parallel addition of 10 ng/ml TGF-β1
# Procedure: as §1
# The cells were washed with the PBS and then incubated with Alcian blue stain (1% Alcian blue in 3% strength acetic acid) for 20 minutes. The cells were decolorized by washing three times with 3% strength acetic acid and washing once with water. To quantify the stain which has been taken up, the cells were solubilized by shaking in 1% strength SDS solution at room temperature for 30 minutes and then heating at 90° C. for one hour. The absorbance was detected at the wavelength of 595 nm.
# BMMSC [3] = test: Real time RT-PCR of cartilage-specific differentiation markers (SOX9, Aggrecan); type: cell-based, human; conditions: transcription level; treatment with TGF-β1
# Procedure: Total cellular ribonucleic acid (RNA) was extracted using “NucleoSpin RNA II” from Macherey-Nagel. 1 μg of the RNA was amplified using a “one-step RT-PCR kit” (ABgene, UK). Real time (RT) PCR primers specific for collagen type I, SOX9, Aggrecan and glyceraldehyde-3-phosphate dehydrogenase (GAPDH) were used. Amplification of the so-called housekeeping gene GAPDH was used to verify the quality of the RNA and ensure uniform loading of resolving gels with the samples. A real time reverse transcription PCR was carried out using a LightCycler (Roche Diagnostic). The RT-PCR conditions included an RT step of 20 minutes at 61° C. to produce single-stranded cDNA from mRNA, followed by an inactivation of reverse transcriptase and denaturation at 95° C. for 30 seconds. 40 amplification cycles of one second at 95° C., of 15 seconds at 58° C. and of 13 seconds at 72° C. were carried out. Finally, a cooling step of 30 seconds at 40° C. was carried out.
# BMMSC [4] = test: Aggrecan immunofluorescence; type: cell-based, human; conditions: day 14; recombinant TGF-β1 only
# Procedure: The cells were seeded in a density of 15×10^3 in a 12-well plate. 14 days after the treatment with the extracts, the cells were washed with PBS and then fixed with ice-cold 70% strength ethanol for at least 18 hours. The cells were then blocked in 3% strength goat serum (normal goat serum NGS) for one hour, and thereafter mouse anti-Aggrecan antibodies (Chemicon) were used with a concentration of 1 μg/ml and incubated at 4° C. for at least 18 hours. The primary antibodies were then removed, the cells were washed three times with PBS and subsequently incubated with anti-mouse FITC-conjugated IgM (Molecular Probes) in a ratio of 1:1000 for one hour. The secondary antibodies were removed and the cells were washed three times with the PBS. A negative control was carried out with the secondary antibody. After the incubation, the cells were washed, put on supports and inspected using a fluorescence microscope.
substance,measurement,setting,value
"TGF-β1: Recombinant TGF-β1 protein (R&D Systems), 10 ng/ml, positive control for chondrocytic differentiation",cell proliferation,[1],graduated increase
same,chondroitin sulfate,BMMSC [2],increase in chondroitin sulfate
same,mRNA for aggrecan,BMMSC [3],significantly increased
same,number of aggrecan-positive cells compared with the untreated control samples,BMMSC [4],larger numbers
